{"source": "patent US8058261B2", "about": "“3′-ethynylcytidine derivative” (Taiho Pharmaceutical Co., Ltd., priority 2006, dated 2011)", "key": {"[1]": {"assay": "Serum ECyd level after peroral administration", "assay_type": "in vivo", "conditions": "perorally administered to Donryu male rats; compared with ECyd", "method": "Separately, the compound of the present invention was perorally administered to Donryu male rats, and serum ECyd level was measured."}, "[2]": {"system": "Yoshida Sarcoma cell line (rat ascites tumor)", "assay": "Antitumor effect when perorally administered, Donryu rat subcutaneous tumor implantation system", "assay_type": "in vivo, Donryu rats", "conditions": "perorally once a day for seven days at 12 μmol/kg/day; tumor weight seven days after grouping vs non-treatment group; ECyd equimolar", "method": "Pharmacological Test Example 1 Antitumor Effect of the Compound of the Present Invention When Perorally Administered to Donryu Rat Subcutaneous Tumor Implantation System\nCells of a Yoshida Sarcoma cell line (rat ascites tumor) intraperitoneally subcultured in Donryu rats (Charles River Laboratories Japan, Inc.) were implanted subcutaneously to 5-week-old Donryu rats in the back thereof at 2×10^4 cells/0.2 mL. Four days after implantation, the body weight of each rat was measured, and the rats were grouped so that the average body weight was nearly equal between the groups (7 rats per group).\nEach of the ECyd derivatives was dissolved or suspended in 0.5% hydroxypropylmethylcellulose solution, and the resultant solution or suspension was perorally administered to each rat every day from the day of grouping once a day for seven days at a dose of 12 μmol/kg/day. The ECyd derivative was evaluated three times. As a control in each test, ECyd was used in an equimolar amount as the ECyd derivative.\nSeven days after the day of grouping, the tumor weight of the rat in the pharmaceutical agent administration group was measured. The tumor weight of the rat to which no pharmaceutical agent had been administered (non-treatment group) was also measured. The average tumor weight of each of the pharmaceutical agent administration group and the non-treatment group was calculated. Tumor growth inhibition rate (IR) was determined through use of the following equation, whereby antitumor effect was evaluated. IR(%)=[1−(TWtest)/(TWcont)]×100 (Equation 1) [wherein TWtest and TWcont represent the average tumor weight of the pharmaceutical agent administration group and the non-treatment group, respectively]."}, "human tumor cells": {"system": "human tumor cells", "conditions": "intravenous 0.25 mg/kg for ten continuous days; gastric, colon, pancreatic, esophageal, bile duct, lung, breast, renal cancer strains; cited from earlier work"}}, "note": "Where a name gives a salt, the structure may show the parent alone.", "data": [{"compound": "C#C[C@@]1(O)[C@@H](CO[Si](C)(C)C(C)(C)C)O[C@@H](n2ccc(NC(=O)OC(C)(C)C)nc2=O)[C@@H]1O", "values": [{"measurement": "melting point", "value": "103 to 110", "unit": "°C"}]}, {"compound": "C#C[C@@]1(O)[C@@H](CO[Si](CC)(CC)CC)O[C@@H](n2ccc(N)nc2=O)[C@@H]1O", "values": [{"measurement": "melting point", "value": "202 to 204", "unit": "°C"}]}, {"compound": "C#C[C@@]1(O)[C@@H](CO[Si](C)(C)c2ccccc2)O[C@@H](n2ccc(N)nc2=O)[C@@H]1O", "values": [{"measurement": "melting point", "value": "171 to 173", "unit": "°C"}]}, {"compound": "C#C[C@@]1(O)[C@@H](CO[Si](C)(C)C(C)(C)C(C)C)O[C@@H](n2ccc(N)nc2=O)[C@@H]1O", "values": [{"measurement": "melting point", "value": "> 197 °C (dec.)"}]}, {"compound": "C#C[C@@]1(O)[C@@H](CO)O[C@@H](n2ccc(N)nc2=O)[C@@H]1O[Si](C)(C)C(C)(C)C(C)C", "note": "(as salt: trifluoroacetic acid salt) [Compound 13, 1-(2-O-Dimethylthexylsilyl-3-C-ethynyl-1-β-D-ribofuranosyl)cytosine trifluoroacetic acid salt]", "values": [{"measurement": "melting point", "value": 182, "unit": "°C"}]}, {"compound": "C#C[C@@]1(O)[C@@H](CO[Si](c2ccccc2)(c2ccccc2)C(C)(C)C)O[C@@H](n2ccc(N)nc2=O)[C@@H]1O", "note": "(hydrate or solvate)", "values": [{"measurement": "melting point", "value": "210 to 213", "unit": "°C"}]}, {"compound": "C#C[C@@]1(O)[C@@H](CO[Si](C)(C)C(C)(C)C)O[C@@H](n2ccc(N)nc2=O)[C@@H]1O", "note": "[Compound 1, 1-[5-O-(tert-Butyldimethylsilyl)-3-C-ethynyl-β-D-ribofuranosyl]cytosine]", "values": [{"measurement": "serum ECyd level (concentration in blood)", "setting": "[1]", "value": "particularly high concentration in blood"}, {"measurement": "Tumor growth inhibition rate IR (%)", "setting": "[2]", "value": 94.6, "unit": "%"}, {"measurement": "melting point", "value": "251 to 256 °C (dec.)"}]}, {"compound": "C#C[C@@]1(O)[C@@H](CO[Si](C(C)C)(C(C)C)C(C)C)O[C@@H](n2ccc(N)nc2=O)[C@@H]1O", "note": "[Compound 3, 1-[5-O-Triisopropylsilyl-3-C-ethynyl-β-D-ribofuranosyl]cytosine]", "values": [{"measurement": "serum ECyd level (concentration in blood)", "setting": "[1]", "value": "particularly high concentration in blood"}, {"measurement": "Tumor growth inhibition rate IR (%)", "setting": "[2]", "value": 93.4, "unit": "%"}, {"measurement": "melting point", "value": "> 219 °C (dec.)"}]}, {"compound": "C#C[C@@]1(O)[C@@H](CO[Si](C)(C)CCCCCCCC)O[C@@H](n2ccc(N)nc2=O)[C@@H]1O", "note": "[Compound 4, 1-[5-O-(Dimethyl-n-octylsilyl)-3-C-ethynyl-β-D-ribofuranosyl]cytosine]", "values": [{"measurement": "serum ECyd level (concentration in blood)", "setting": "[1]", "value": "particularly high concentration in blood"}, {"measurement": "melting point", "value": "175 to 177 °C (dec.)"}]}, {"compound": "C#C[C@@]1(O)[C@@H](CO)O[C@@H](n2ccc(N)nc2=O)[C@@H]1O[Si](C)(C)C(C)(C)C", "note": "[Compound 9, 1-[2-O-(tert-Butyldimethylsilyl)-3-C-ethynyl-1-β-D-ribofuranosyl]cytosine]", "values": [{"measurement": "serum ECyd level (concentration in blood)", "setting": "[1]", "value": "particularly high concentration in blood"}, {"measurement": "Tumor growth inhibition rate IR (%)", "setting": "[2]", "value": 99.6, "unit": "%"}]}, {"compound": "C#C[C@@]1(O)[C@@H](CO)O[C@@H](n2ccc(N)nc2=O)[C@@H]1O[Si](C(C)C)(C(C)C)C(C)C", "note": "[Compound 11, 1-(2-O-Triisopropylsilyl-3-C-ethynyl-1-β-D-ribofuranosyl)cytosine]", "values": [{"measurement": "serum ECyd level (concentration in blood)", "setting": "[1]", "value": "particularly high concentration in blood"}, {"measurement": "Tumor growth inhibition rate IR (%)", "setting": "[2]", "value": 88.3, "unit": "%"}]}, {"compound": "C#C[C@@]1(O)[C@@H](CO[Si](C)(C)C(C)(C)C(C)C)O[C@@H](n2ccc(N)nc2=O)[C@@H]1O[Si](C)(C)C(C)(C)C(C)C", "note": "[Compound 12, 1-(2,5-bis-O-Dimethylthexylsilyl-3-C-ethynyl-1-β-D-ribofuranosyl)cytosine]", "values": [{"measurement": "serum ECyd level (concentration in blood)", "setting": "[1]", "value": "particularly high concentration in blood"}, {"measurement": "Tumor growth inhibition rate IR (%)", "setting": "[2]", "value": 91.5, "unit": "%"}, {"measurement": "melting point", "value": "106 to 108", "unit": "°C"}]}, {"compound": "C#C[C@@]1(O)[C@@H](CO)O[C@@H](n2ccc(N)nc2=O)[C@@H]1O[Si](C)(C)C(C)(C)C(C)C", "note": "[Compound 14, 1-(2-O-Dimethylthexylsilyl-3-C-ethynyl-1-β-D-ribofuranosyl)cytosine]", "values": [{"measurement": "serum ECyd level (concentration in blood)", "setting": "[1]", "value": "particularly high concentration in blood"}, {"measurement": "Tumor growth inhibition rate IR (%)", "setting": "[2]", "value": 99.8, "unit": "%"}, {"measurement": "melting point", "value": 218, "unit": "°C"}]}, {"compound": "C#C[C@@]1(O)[C@@H](CO[Si](C)(C)C(C)(C)C)O[C@@H](n2ccc(NC(=O)CCCCCC)nc2=O)[C@@H]1O", "note": "[Compound 15, 1-[5-O-(tert-Butyldimethylsilyl)-3-C-ethynyl-β-D-ribofuranosyl]-4-N-heptanoylcytosine]", "values": [{"measurement": "serum ECyd level (concentration in blood)", "setting": "[1]", "value": "particularly high concentration in blood"}, {"measurement": "melting point", "value": "134 to 137", "unit": "°C"}]}, {"compound": "C#C[C@@]1(O)[C@@H](CO[Si](C)(C)C(C)(C)C)O[C@@H](n2ccc(NC(=O)CN(C)C)nc2=O)[C@@H]1O", "note": "[Compound 17, 1-[5-O-(tert-Butyldimethylsilyl)-3-C-ethynyl-β-D-ribofuranosyl]-4-N-(N,N-dimethylglycyl)cytosine]", "values": [{"measurement": "serum ECyd level (concentration in blood)", "setting": "[1]", "value": "particularly high concentration in blood"}, {"measurement": "melting point", "value": "180 to 185", "unit": "°C"}]}, {"compound": "C#C[C@@]1(O)[C@@H](CO[Si](C(C)C)(C(C)C)C(C)C)O[C@@H](n2ccc(NC(=O)CN(C)C)nc2=O)[C@@H]1O", "note": "[Compound 18, 1-[5-O-(Triisopropylsilyl)-3-C-ethynyl-β-ribofuranosyl]-4-N-(N,N-dimethylglycyl)cytosine]", "values": [{"measurement": "serum ECyd level (concentration in blood)", "setting": "[1]", "value": "particularly high concentration in blood"}, {"measurement": "melting point", "value": "146 to 148", "unit": "°C"}]}, {"compound": "C#C[C@@]1(O)[C@@H](CO)O[C@@H](n2ccc(N)nc2=O)[C@@H]1O", "note": "[ECyd, 3′-ethynylcytidine]", "values": [{"measurement": "Tumor growth inhibition rate IR (%)", "setting": "[2]", "value": 46.6, "unit": "%"}, {"measurement": "anti-tumor effect", "setting": "human tumor cells", "value": "excellent anti-tumor effect more greatly than any of fluoropyrimidine-based drugs"}]}]}
